Measurements as given in ChEMBL document CHEMBL5375972, “Discovery of Novel 2,3-Dihydro-1H-indene-5-sulfonamide NLRP3 Inflammasome Inhibitors Targeting Colon as a Potential Therapy for Colitis” (J Med Chem, 2023).
Activity calls are given as the source filed them. The rule behind the calls is not given here.

Experiments:
[1] = Subacute toxicity in C57BL/6 mouse assessed as heart histological changes at 100 mg/kg,ip administrated for 14 days; format: organism-based; settings: in vivo, 336 h, time 14 day
[2] = target: T1, Interferon-inducible protein AIM2 (Mus musculus) (UniProt Q91VJ1); assay: Inhibition of AIM2 inflammasome in mouse J774.A1 cells assessed as inhibition of IL-1 beta secretion at 10 uM pretreated with LPS and compound for 1 hr and later stimulated with poly (dA:dT) for 8 hrs by ELISA; format: cell-based; settings: time 9.0 hrs
T1 sequence (whole entry): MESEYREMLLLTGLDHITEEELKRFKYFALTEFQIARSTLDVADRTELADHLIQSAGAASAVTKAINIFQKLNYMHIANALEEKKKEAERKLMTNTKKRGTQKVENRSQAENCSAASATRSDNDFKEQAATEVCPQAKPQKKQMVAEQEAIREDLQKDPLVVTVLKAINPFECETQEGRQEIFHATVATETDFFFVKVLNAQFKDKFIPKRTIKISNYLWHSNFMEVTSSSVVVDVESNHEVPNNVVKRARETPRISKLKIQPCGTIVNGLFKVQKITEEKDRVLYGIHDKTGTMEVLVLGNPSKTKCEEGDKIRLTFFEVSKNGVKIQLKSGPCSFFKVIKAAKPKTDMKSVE

[3] = Drug distribution in Sprague-Dawley rat liver at 1 mg/kg,iv measured for 0.5 to 2 hrs by HPLC-MS/MS analysis; format: ADME, organism-based; settings: in vivo, time 0.5-2 hrs
J774.A1 = assay: […] of pyroptosis in mouse J774.A1 cells assessed as decrease in LDH release at 0.1 to 30 uM stimulated with LPS for 4.5 hs followed by incubation with compound for 30 mins and ATP addition for 30 mins by microplate reader assay; format: functional, cell-based; settings: dose 0.1-30 µM, time 1.0 hrs
[4] = Cmax in Sprague-Dawley rat at 1 mg/kg,iv measured after 24 hrs by HPLC-MS/MS analysis; format: ADME, organism-based; parameters: dose 1 mg/kg, time 24 hrs, route iv; settings: in vivo
Mus musculus [5] = assay: Anti-inflammatory activity in DSS-induced ulcerative colitis C57BL/6 mouse model assessed as reduction in inflammatory cell infiltration in colon at 10 mg/kg,ip administrated for 9 days by Hematoxylin-eosin staining based microscopic analysis; format: functional, organism-based; settings: time 9.0 day
[6] = Stability of compound in rat plasma measured for 48 hrs; format: ADME, cell-free
[7] = Drug distribution in Sprague-Dawley rat kidney at 1 mg/kg,iv measured for 0.5 to 2 hrs by HPLC-MS/MS analysis; format: ADME, organism-based; settings: in vivo, time 0.5-2 hrs
[8] = Subacute toxicity in C57BL/6 mouse assessed as heart histological changes at 10 mg/kg,ip administrated for 14 days; format: organism-based; settings: in vivo, 336 h, time 14 day
[9] = Subacute toxicity in C57BL/6 mouse assessed as change in spleen weight at 100 mg/kg,ip administrated for 14 days; format: organism-based; settings: in vivo, 336 h, time 14 day
[10] = Acute toxicity in Kunming mouse model assessed as behavioral abnormalities at 2000 mg/kg,IG administration for 7 days; format: organism-based; settings: in vivo, po, 168 h, time 7 day
[11] = Acute toxicity in Kunming mouse model assessed as clonic convulsion at 1000 mg/kg,IG administration for 7 days; format: organism-based; settings: in vivo, po, 168 h, time 7 day
[12] = Subacute toxicity in C57BL/6 mouse assessed as lung histological changes at 100 mg/kg,ip administrated for 14 days; format: organism-based; settings: in vivo, 336 h, time 14 day
[13] = Stability of compound in rat liver measured for 48 hrs; format: ADME, tissue-based
Mus musculus [14] = assay: Anti-inflammatory activity in DSS-induced ulcerative colitis C57BL/6 mouse model assessed as decrease in caspase-1 p20 protein expression in colon at 10 mg/kg,ip administrated for 9 days by Western blotting analysis; format: functional, organism-based; settings: time 9.0 day
[15] = Acute toxicity in Kunming mouse model assessed as behavioral abnormalities at 1000 mg/kg,IG administration for 7 days; format: organism-based; settings: in vivo, po, 168 h, time 7 day
[16] = Subacute toxicity in C57BL/6 mouse assessed as body weight gain at 10 mg/kg,ip administrated for 14 days; format: organism-based; settings: in vivo, 336 h, time 14 day
[17] = Subacute toxicity in C57BL/6 mouse assessed as kidney histological changes at 10 mg/kg,ip administrated for 14 days; format: organism-based; settings: in vivo, 336 h, time 14 day
[18] = Drug distribution in Sprague-Dawley rat heart at 1 mg/kg,iv measured for 0.5 to 2 hrs by HPLC-MS/MS analysis; format: ADME, organism-based; settings: in vivo, time 0.5-2 hrs
[19] = Subacute toxicity in C57BL/6 mouse assessed as kidney histological changes at 100 mg/kg,ip administrated for 14 days; format: organism-based; settings: in vivo, 336 h, time 14 day
[20] = Subacute toxicity in C57BL/6 mouse assessed as change in heart weight at 10 mg/kg,ip administrated for 14 days; format: organism-based; settings: in vivo, 336 h, time 14 day
[21] = Subacute toxicity in C57BL/6 mouse assessed as change in liver weight at 100 mg/kg,ip administrated for 14 days; format: organism-based; settings: in vivo, 336 h, time 14 day
Mus musculus [22] = assay: Anti-inflammatory activity in DSS-induced ulcerative colitis C57BL/6 mouse model assessed as increase in body weight at 10 mg/kg,ip administrated for 9 days; format: functional, organism-based; settings: time 9.0 day
Mus musculus [23] = assay: Anti-inflammatory activity in C57BL/6 mouse assessed as inhibition of LPS-induced IL-1beta secretion at 10 mg/kg,ip administrated for 1 hr followed by LPS stimulation for 2.5 hrs by ELISA analysis; format: functional, organism-based
[24] = Acute toxicity in Kunming mouse model assessed as change in body weight at 2000 mg/kg,IG administration for 7 days; format: organism-based; settings: in vivo, po, 168 h, time 7 day
[25] = Subacute toxicity in C57BL/6 mouse assessed as change in colon weight at 10 mg/kg,ip administrated for 14 days; format: organism-based; settings: in vivo, 336 h, time 14 day
Mus musculus [26] = assay: Anti-inflammatory activity in DSS-induced ulcerative colitis C57BL/6 mouse model assessed as decrease in IL-1beta p17 protein expression in colon at 10 mg/kg,ip administrated for 9 days by Western blotting analysis; format: functional, organism-based; settings: time 9.0 day
[27] = Subacute toxicity in C57BL/6 mouse assessed as change in colon weight at 100 mg/kg,ip administrated for 14 days; format: organism-based; settings: in vivo, 336 h, time 14 day
[28] = Acute toxicity in Kunming mouse model assessed as clonic convulsion at 2000 mg/kg,IG administration for 7 days; format: organism-based; settings: in vivo, po, 168 h, time 7 day
[29] = Clearance in Sprague-Dawley rat at 1 mg/kg,iv measured after 24 hrs by HPLC-MS/MS analysis; format: ADME, organism-based; settings: in vivo
Mus musculus [30] = assay: Anti-inflammatory activity in DSS-induced ulcerative colitis C57BL/6 mouse model assessed as decrease in pro-IL-1beta protein expression in colon at 10 mg/kg,ip administrated for 9 days by Western blotting analysis; format: functional, organism-based; settings: time 9.0 day
[31] = Drug distribution in Sprague-Dawley rat colon at 1 mg/kg,iv measured for 0.5 hrs by HPLC-MS/MS analysis; format: ADME, organism-based; settings: read-out: Ct
[32] = Acute toxicity in Kunming mouse model assessed as lethargy at 1000 mg/kg,IG administration for 7 days; format: organism-based; settings: in vivo, po, 168 h, time 7 day
[33] = Subacute toxicity in C57BL/6 mouse assessed as change in lung weight at 10 mg/kg,ip administrated for 14 days; format: organism-based; settings: in vivo, 336 h, time 14 day
[34] = target: NACHT, LRR and PYD domains-containing protein 3 (Homo sapiens, UniProt Q96P20); assay: Inhibition of NLRP3 inflammasome in human U-937 cells assessed as downregulation of LPS/ATP-induced caspase-1 p20 expression at 3 to 30 uM primed with LPS for 4.5 hrs followed by compound addition for 2.5 hrs and stimulated with […] for 13 hrs by Western blotting analysis; format: cell-based; settings: dose 3-30 µM, time 15.5 hrs
Sequence of NACHT, LRR and PYD domains-containing protein 3 (Q96P20 whole entry, the tested form may be a part): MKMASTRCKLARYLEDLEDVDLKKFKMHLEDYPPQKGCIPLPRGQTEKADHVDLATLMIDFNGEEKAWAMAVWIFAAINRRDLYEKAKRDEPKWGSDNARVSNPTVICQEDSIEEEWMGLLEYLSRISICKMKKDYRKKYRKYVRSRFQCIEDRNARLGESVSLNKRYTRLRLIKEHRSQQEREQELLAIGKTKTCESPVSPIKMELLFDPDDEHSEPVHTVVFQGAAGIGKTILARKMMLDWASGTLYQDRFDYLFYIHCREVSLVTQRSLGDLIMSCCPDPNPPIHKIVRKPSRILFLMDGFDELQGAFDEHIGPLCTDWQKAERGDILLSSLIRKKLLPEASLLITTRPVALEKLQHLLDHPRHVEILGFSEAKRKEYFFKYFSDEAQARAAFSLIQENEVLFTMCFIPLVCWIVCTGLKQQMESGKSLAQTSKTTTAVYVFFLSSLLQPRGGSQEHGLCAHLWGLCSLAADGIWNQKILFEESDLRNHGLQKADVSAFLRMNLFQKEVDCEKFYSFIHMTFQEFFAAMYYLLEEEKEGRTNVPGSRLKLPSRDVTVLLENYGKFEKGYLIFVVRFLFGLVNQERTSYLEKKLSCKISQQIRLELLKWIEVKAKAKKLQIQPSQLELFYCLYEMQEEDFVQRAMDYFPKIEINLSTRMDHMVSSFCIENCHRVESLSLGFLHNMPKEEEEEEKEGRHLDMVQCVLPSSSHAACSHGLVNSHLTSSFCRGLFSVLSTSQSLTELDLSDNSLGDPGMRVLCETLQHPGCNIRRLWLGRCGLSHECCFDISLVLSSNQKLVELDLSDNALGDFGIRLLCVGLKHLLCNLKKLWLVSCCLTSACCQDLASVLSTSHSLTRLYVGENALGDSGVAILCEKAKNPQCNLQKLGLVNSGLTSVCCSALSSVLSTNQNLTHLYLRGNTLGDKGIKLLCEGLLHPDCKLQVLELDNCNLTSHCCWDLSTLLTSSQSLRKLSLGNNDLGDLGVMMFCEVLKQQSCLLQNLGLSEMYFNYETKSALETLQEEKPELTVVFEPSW

Question: For CCCNS(=O)(=O)c1ccc2c(c1)CC(N(Cc1cc(Cl)ccc1OCCOC)C(=O)c1cc3ccccc3o1)C2 (racemic), which Activity [1] is on record?
Answer: Non-Toxic

Question: And the inhibition [2]?
Answer: inactive

Question: What about the Drug uptake [3] of the same molecule?
Answer: Active

Question: What about the Activity (J774.A1) of the same molecule?
Answer: Active

Question: And the Cmax [4]?
Answer: 219 ng/mL

Question: And the Activity (Mus musculus [5])?
Answer: Active

Question: What about the Stability [6] of the same molecule?
Answer: Stable

Question: What about the Drug uptake [7] of the same molecule?
Answer: Active

Question: What about the Activity [8] of the same molecule?
Answer: Non-Toxic

Question: What about the Activity [9] of the same molecule?
Answer: Non-Toxic

Question: What about the Activity [10] of the same molecule?
Answer: Non-Toxic

Question: And the Activity [11]?
Answer: Non-Toxic

Question: And the Activity [12]?
Answer: Non-Toxic

Question: What about the Stability [13] of the same molecule?
Answer: Stable

Question: What about the Activity (Mus musculus [14]) of the same molecule?
Answer: Active

Question: What about the Activity [15] of the same molecule?
Answer: Non-Toxic

Question: And the Activity [16]?
Answer: Toxic

Question: What about the Activity [17] of the same molecule?
Answer: Non-Toxic

Question: And the Drug uptake [18]?
Answer: Active

Question: What about the Activity [19] of the same molecule?
Answer: Non-Toxic

Question: What about the Activity [20] of the same molecule?
Answer: Non-Toxic

Question: And the Activity [21]?
Answer: Non-Toxic

Question: And the Activity (Mus musculus [22])?
Answer: Active

Question: And the Activity (Mus musculus [23])?
Answer: Active

Question: What about the Activity [24] of the same molecule?
Answer: Non-Toxic

Question: And the Activity [25]?
Answer: Non-Toxic

Question: And the Activity (Mus musculus [26])?
Answer: Active

Question: And the Activity [27]?
Answer: Non-Toxic

Question: And the Activity [28]?
Answer: Non-Toxic

Question: And the clearance [29]?
Answer: 78.4 mL/min/kg

Question: What about the Activity (Mus musculus [30]) of the same molecule?
Answer: Active

Question: And the concentration at 0.5 h [31]?
Answer: 35300 ng/g

Question: What about the Activity [32] of the same molecule?
Answer: Non-Toxic

Question: What about the Activity [33] of the same molecule?
Answer: Non-Toxic

Question: What about the inhibition [34] of the same molecule?
Answer: Active
